Article PMC5784245, “An Optimized Synthetic-Bioinformatic Natural Product Antibiotic Sterilizes Multidrug-Resistant Acinetobacter baumannii-Infected Wounds” (mSphere, 2018)
Values after ≈ are worked out from the molar mass of the structure shown. Non-standard residues stand in square brackets, D forms with d. Residues, ends and D or L forms follow the SMILES beside them. dOrn = NCCC[C@@H](N)C(=O)O; Orn = NCCC[C@H](N)C(=O)O

What was measured:
[1] = system: Acinetobacter baumannii; format: cell-based; details: 24 h
Method: (§1) Wang resins were purchased from Matrix Innovation. Reagents for peptide synthesis were purchased from P3 BioSystems, Chempep, and Chem-Impex International. The fluorescent dyes DiBAC4 and SYTOX were purchased from Thermo Fisher Scientific, and media were prepared from premixed powders: brain heart infusion for S. sobrinus and L. rhamnosus (Hardy Diagnostics), yeast extract-peptone-dextrose for C. albicans, lysogeny broth (LB) for all other bacteria (BD Biosciences), and McCoy’s 5A medium with 10% fetal bovine serum for HT-29 cells (American Type Culture Collection). All other chemicals and consumables were purchased from Sigma-Aldrich and VWR International. Paenimucillin 4F for in vivo studies was purchased from Ontores Biotechnologies as a high-performance liquid chromatography (HPLC)-purified peptide and used as is. Dye assays were performed in a Gen5 microtiter plate reader (Biotek Instruments). Liquid chromatography-mass spectrometry (LC-MS) analyses were performed by using an Acquity system (Waters Corporation).
(§2) Standard susceptibility assays were performed in LB medium in 96-well microtiter plates to determine the MIC by the broth microdilution method in accordance with protocols recommended by Clinical and Laboratory Standards Institute ([35]). Cytotoxicity was assessed using human HT-29 cells based on a similar broth microdilution method ([36]). All assays were performed in duplicate. For the cytotoxicity assay, 5,000 HT-29 cells per well were seeded into a microtiter plate and cultured for 24 h at 37°C in a 5% CO2 atmosphere. Peptides were supplemented at concentrations ranging from 128 to 0.5 μg/ml, and the cells were incubated for another 20 h. Growth media were removed, 3-(4,5-dimethylthiazol-2-yl)-2,5-diphenyltetrazolium bromide (MTT) was added to all wells (220 μl per well at 0.5 mg/ml), the mixture was incubated for 4 h, and then the media were discarded. Cell viability was determined by visual inspection.

[2] = system: Bacillus subtilis; format: cell-based; details: 24 h
Method: as §1, §2

[3] = system: Enterobacter cloacae; format: cell-based; details: 24 h
Method: as §1, §2

[4] = system: Enterococcus faecalis; format: cell-based; details: 24 h
Method: as §1, §2

[5] = system: Enterococcus faecium; format: cell-based; details: 24 h
Method: as §1, §2

[6] = system: Klebsiella pneumoniae; format: cell-based; details: 24 h
Method: as §1, §2

[7] = system: Lactobacillus rhamnosus; format: cell-based; details: 24 h
Method: as §1, §2

[8] = system: Pseudomonas aeruginosa; format: cell-based; details: 24 h
Method: as §1, §2

[9] = system: Staphylococcus aureus; format: cell-based; details: 24 h
Method: as §1, §2

[10] = system: Streptococcus sobrinus; format: cell-based; details: 24 h
Method: as §1, §2

[11] = system: A. baumannii clinical isolate 1788; format: cell-based, Acinetobacter baumannii; details: clinical isolate 1788, 24 h
Method: as §1, §2

[12] = system: A. baumannii clinical isolate 1790; format: cell-based, Acinetobacter baumannii; details: clinical isolate 1790, 24 h
Method: as §1, §2

[13] = system: A. baumannii clinical isolate 1791; format: cell-based, Acinetobacter baumannii; details: clinical isolate 1791, 24 h
Method: as §1, §2

[14] = system: A. baumannii clinical isolate 1795; format: cell-based, Acinetobacter baumannii; details: clinical isolate 1795, 24 h
Method: as §1, §2

[15] = system: A. baumannii clinical isolate 1797; format: cell-based, Acinetobacter baumannii; details: clinical isolate 1797, 24 h
Method: as §1, §2

[16] = system: A. baumannii clinical isolate S3; format: cell-based, Acinetobacter baumannii; details: clinical isolate S3, 24 h
Method: as §1, §2

[17] = system: A. baumannii clinical isolate S5; format: cell-based, Acinetobacter baumannii; details: clinical isolate S5, 24 h
Method: as §1, §2

[18] = system: C. albicans; experiment: Toxicity assessment, MIC against C. albicans; format: cell-based, Candida albicans; details: Brady lab strain; yeast extract-peptone-dextrose; surrogate for cytotoxicity; duplicate
Method: as §1, with “Liquid chromatography-mass spectrometry (LC-MS) analyses were performed by using an Acquity system (Waters Corporation).” left out
Standard susceptibility assays were performed in LB medium in 96-well microtiter plates to determine the MIC by the broth microdilution method in accordance with protocols recommended by Clinical and Laboratory Standards Institute ([35]). Cytotoxicity was assessed using human HT-29 cells based on a similar broth microdilution method ([36]). […] Cell viability was determined by visual inspection.

[19] = system: MDR A. baumannii strain AB5075; experiment: microbe, parasite or virus in culture; format: cell-based, Acinetobacter baumannii; details: MDR strain AB5075, 24 h
Method: as §2

[20] = system: MDR A. baumannii strain AB5075; experiment: Rat cutaneous wound model, efficacy; format: in vivo, Sprague-Dawley rats; details: rat wound infected with AB5075 (500 CFU), topical 10 mg/ml twice daily
Method: (§3) The rat cutaneous wound model was used as described previously ([21]). Protocols for animal studies were approved by the Rutgers University Institutional Animal Care and Use Committee. All animals were humanely euthanized at the study endpoint by following the AVMA Guidelines for the Euthanasia of Animals. Immunocompetent Sprague-Dawley female rats (~200 g) were anesthetized by intraperitoneal injection of 100 mg/kg ketamine plus 10 mg/kg xylazine. Using a 1.0-cm-diameter disposable biopsy punch, two symmetrical wounds were created on the dorsum of each rat. A circular gauze dressing 8 mm in diameter was saturated overnight with either vehicle or 4F at 10 mg/ml in sterile centrifuge tubes. To assess tolerability, the rats were weighed daily and observed for wound healing, behavior changes, and visible adverse drug effects for 5 days. To assess efficacy, A. baumannii strain AB5075 was grown overnight and the culture was diluted to provide the challenge inoculum (500 CFU) as 50 μl of bacterial suspension in 0.9% (wt/vol) NaCl. A circular gauze dressing 8 mm in diameter was saturated overnight with vehicle, tetracycline, or 4F at 10 mg/ml in sterile centrifuge tubes. These saturated dressings were topically applied to the wound site with sterile forceps twice daily, starting at 30 min postinoculation, for 6 days. Rats were observed twice daily for morbidity and possible signs of acute toxicity. Two and four independent cutaneous wounds were tested in tolerability and efficacy assessments, respectively.

[21] = Rat cutaneous wound model, tolerability; format: in vivo, Sprague-Dawley rats; details: uninfected wounded rats, topical 10 mg/ml
Method: as §3, with “Rats were observed twice daily for morbidity and possible signs of acute toxicity. Two and four independent cutaneous wounds were tested in tolerability and efficacy assessments, respectively.” left out

[22] = system: A. baumannii; experiment: Membrane depolarization assay (DiBAC4); format: cell-based, Acinetobacter baumannii; details: 4× MIC (8 μg/ml); DiBAC4 fluorescence at endpoint of assay; polymyxin at 4× MIC
Method: In a membrane depolarization assay ([31]), A. baumannii colonies were scraped off an agar plate and suspended in LB to optical density at 600 nm (OD600) of 0.5 to 0.6. The resulting suspension (1.8 ml) was mixed 9:1 with DiBAC4 (20 μg/ml), incubated at room temperature for 5 min, and monitored at 2-s intervals (excitation/emission, 492/515 nm) for 2 min. Various solutions were added (10 μl) while the fluorescence signal was continually being monitored. Paenimucillin C was tested at final concentrations of 2× and 4× its MIC, and polymyxin B and DMSO were used as positive and negative controls, respectively. The treated cultures were then monitored at 2-s intervals for another 5 min. Pore formation assays ([32]) were performed in the same way, except that Triton X-100 was used as the positive control at a final concentration of 0.25% (wt/vol).

[23] = system: A. baumannii; experiment: Pore formation assay (SYTOX); format: cell-based, Acinetobacter baumannii; details: 4× MIC (8 μg/ml), SYTOX fluorescence

CC[C@@H](C)[C@@H](NC(=O)[C@@H](NC(=O)[C@H](CO)NC(=O)[C@H](Cc1ccccc1)NC(=O)[C@@H](CCCN)NC(=O)[C@H](CO)NC(=O)[C@H](CO)NC(=O)[C@@H](Cc1ccccc1)NC(=O)[C@@H](CO)NC(=O)[C@H](NC(=O)[C@@H](CCCN)NC(=O)[C@@H](Cc1ccccc1)NC(C)=O)[C@H](C)CC)C(C)C)C(=O)N[C@@H](CCCN)C(=O)O [4F, paenimucillin C] (Ac-[dF][dOrn][dI][dS][dF]SS[dOrn]FSV[dI][Orn]-OH)
MIC Acinetobacter baumannii [1]: 2 µg/mL (≈ 1.32 µM) | MIC Bacillus subtilis [2]: 16 µg/mL (≈ 10.5 µM) | MIC Enterobacter cloacae [3]: 32 µg/mL (≈ 21.1 µM) | MIC Enterococcus faecalis [4]: 64 µg/mL (≈ 42.2 µM) | MIC Enterococcus faecium [5]: 32 µg/mL (≈ 21.1 µM) | MIC Klebsiella pneumoniae [6]: 4 µg/mL (≈ 2.64 µM) | MIC Lactobacillus rhamnosus [7]: 16 µg/mL (≈ 10.5 µM) | MIC Pseudomonas aeruginosa [8]: 128 µg/mL (≈ 84.3 µM) | MIC Staphylococcus aureus [9]: 32 µg/mL (≈ 21.1 µM) | MIC Streptococcus sobrinus [10]: 16 µg/mL (≈ 10.5 µM) | MIC for A. baumannii clinical isolate 1788 [11]: 4 µg/mL | MIC for A. baumannii clinical isolate 1790 [12]: 4 µg/mL | MIC for A. baumannii clinical isolate 1791 [13]: 2 µg/mL | MIC for A. baumannii clinical isolate 1795 [14]: 4 µg/mL | MIC for A. baumannii clinical isolate 1797 [15]: 4 µg/mL | MIC for A. baumannii clinical isolate S3 [16]: 4 µg/mL | MIC for A. baumannii clinical isolate S5 [17]: 4 µg/mL | MIC, toxicity assessment, C. albicans [18]: 128 µg/mL (≈ 84.3 µM) | in vitro MIC, A. baumannii AB5075 [19]: 1 µg/mL | wound sterilization after 1 day [20]: completely sterilized the wounds | bacterial burden throughout the 5-day study ([20]; P < 0.00001): 0 CFU | weight loss ([21]; 5 days, within normal range due to analgesia, two wounds): ≤ 5% | acute toxicity and change in behavior ([21]; observed 5 days): Neither acute toxicity nor any change in behavior was seen | membrane depolarization relative to polymyxin [22]: ~ 25% | pore formation relative to Triton X-100 [23]: ~ 75%
